How the values were obtained:
[1] = system: Staphylococcus epidermidis; test: Cell suspension kill test in MES buffer, quench, plate count; format: cell-based; settings: 50 mM MES pH 6.5; for Bacterial no. After 60 mins. / Bacterial no. Immediate: S. epidermidis suspension, amounts in weight %; for Bacterial no. Immediate: sample removed immediately; for Reduction in bacterial no. / Bacterial no. (concentration of bacteria remaining after 60 minutes): S. epidermidis; for Reduction in bacterial no.: amounts in mM; for Bacterial no. (concentration of bacteria remaining after 60 minutes): Table 6, percarbonate
Protocol: A cell suspension of Staphylococcus epidermidis in 50 mM MES buffer (2-[N-morpholino]ethanesulfonic acid, Sigma M5287) was prepared to an OD600 nm of 0.022 and equal portions were treated with the components indicated in Table 3, to give the weight percentages also indicated. Samples were removed immediately and after 60 minutes; said samples being decimally diluted in a quench solution (vide infra) and then plated onto a suitable culture medium. The plates were incubated at 37° C. for 48 hours, then read and the bacterial numbers calculated.
The quench solution used was a solution of:
in 37.5 mM phosphate buffer, at pH 7.9, containing 0.05% v/v Triton X-100 (iso-octyl phenoxy polyoxyethanol).
In this Table, the amounts indicated are milliMolar concentrations and the antimicrobial effect is expressed in terms of the reduction in bacterial numbers achieved.
In these Tables, the amounts indicated are milliMolar concentrations and the antimicrobial effect is expressed in terms of the concentration of bacteria remaining after 60 minutes.

Corynebacteria = test: Cell suspension kill test in MES buffer, quench, plate count (Corynebacteria); format: cell-based; settings: amounts in mM; for Bacterial no. After 60 mins.: 50 mM MES pH 6.5, after 60 minutes; for Bacterial no. Immediate: 50 mM MES pH 6.5, sample removed immediately
Protocol: A cell suspension of Staphylococcus epidermidis in 50 mM MES buffer (2-[N-morpholino]ethanesulfonic acid, Sigma M5287) was prepared to an OD600 nm of 0.022 and equal portions were treated with the components indicated in Table 3, to give the weight percentages also indicated. […] The plates were incubated at 37° C. for 48 hours, then read and the bacterial numbers calculated. The quench solution used was a solution of: in 37.5 mM phosphate buffer, at pH 7.9, containing 0.05% v/v Triton X-100 (iso-octyl phenoxy polyoxyethanol). An analogous experiment to that performed with Example 3, with the modification of using Corynebacteria rather than S. epidermidis, was performed with the components indicated in Table 5. In this Table, the amounts indicated are milliMolar concentrations and the effect is expressed as in Table 3.

Which results are given for O=C(O)c1ccccn1 [D, Picolinic acid]?
Bacterial no. After 60 mins. [1]: 6.50 Log10cfu/ml; Bacterial no. Immediate [1]: 6.60 Log10cfu/ml

What does the source list for O=C(CCCCCN1C(=O)c2ccccc2C1=O)OO [Example E, phthalimidoperoxy hexanoic acid]?
Bacterial no. After 60 mins. [1]: 6.50 Log10cfu/ml; Bacterial no. Immediate [1]: 6.47 Log10cfu/ml

With O=C(O)c1ccccn1 [Example F, Picolinic acid] as the compound, how does the “Reduction in bacterial no.” value [1] read?
Its value is <2.59 Log10cfu/ml.

With O.O=BO[O-].[Na+] [Example G, Perborate.H2O] as the compound, how does the “Reduction in bacterial no.” value [1] read?
Its value is <2.59 Log10cfu/ml.

How did the “Bacterial no. After 60 mins.” value (Corynebacteria) turn out when O=C(O)c1ccccn1 [J, Picolinic acid] was run?
Its value is 6.0 Log10cfu/ml.

And the “Bacterial no. Immediate” value (Corynebacteria)?
Its value is 6.1 Log10cfu/ml.

With OO [K, Hydrogen peroxide] as the compound, how does the “Bacterial no. After 60 mins.” value (Corynebacteria) read?
Its value is 4.6 Log10cfu/ml.

And the “Bacterial no. Immediate” value (Corynebacteria)?
The value was 6.1 Log10cfu/ml.

O=C(O)CN(CCN(CC(=O)O)CC(=O)O)CCN(CC(=O)O)CC(=O)O [L, Diethylenetriaminapentaacetic acid] was tested. Which “Bacterial no. After 60 mins.” value (Corynebacteria) did it give?
Its value is 5.9 Log10cfu/ml.

And the “Bacterial no. Immediate” value (Corynebacteria)?
The value was 6.0 Log10cfu/ml.

How did the “Bacterial no. (concentration of bacteria remaining after 60 minutes)” value [1] turn out when O=C([O-])[O-].O=C([O-])[O-].OO.OO.OO.[Na+].[Na+].[Na+].[Na+] [N, Percarbonate] was run?
Its value is 6.13 Log10cfu/ml.

O=C([O-])[O-].O=C([O-])[O-].OO.OO.OO.[Na+].[Na+].[Na+].[Na+] [O, Percarbonate] was tested. Which “Bacterial no. (concentration of bacteria remaining after 60 minutes)” value [1] did it give?
The value was 6.39 Log10cfu/ml.

For Perborate.4 H2O [Example H], which “Reduction in bacterial no.” value [1] is on record?
Its value is <2.59 Log10cfu/ml.
